Measured values reported in patent publication US20230085307A1, “PYRIDAZINONE COMPOUND AND HERBICIDE” (NISSAN CHEMICAL CORPORATION, priority 2019, published 2023).

Legend:
persian speedwell = experiment: Test Example 4: herbicidal effect by soil treatment (Table 19, symbol R); format: in vivo, Persian speedwell (Veronica persica); settings: for herbicidal effect rating, R: persian speedwell: 320 g/ha
Procedure, shortened: (§1)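 In this soil treatment, the formulated compound reached the seeds only through the soil: seeds were buried about 1.5 cm deep in sterilized diluvial soil, then the diluted emulsion was sprayed over the surface. After three weeks at 25° C. to 30° C. in a greenhouse, effects were graded on criteria from an earlier test.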

blackgrass = experiment: Test Example 4: herbicidal effect by soil treatment (Table 19, symbol J); format: in vivo, blackgrass (Alopecurus myosuroides); settings: for herbicidal effect rating, J: blackgrass: 320 g/ha
Procedure, shortened: as §1

Chinese sprangletop = experiment: Test Example 3: herbicidal effect by foliage application, Wagner pot (Table 18, symbol D); format: in vivo, chinese sprangletop (Leptochloa chinensis); settings: for herbicidal effect on D (Chinese sprangletop), rating 0-5: 320 g/ha
Procedure, shortened: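 Plants were sown in alluvial soil held under 0.1–0.5 cm standing water and grown 14 days in a greenhouse at 25–30 °C. An emulsifiable formulation, water-diluted to the set dose, was then sprayed onto the foliage, and effects were scored three weeks later using previously defined criteria.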

oval-leafed pondweed [1] = experiment: Test Example 1: herbicidal activity, application before weed generation under submerged conditions (Table 16, symbol C); format: in vivo, oval-leafed pondweed (Monochoria vaginalis); settings: for Herbicidal effect on C: oval-leafed pondweed (grade 0-5): 320 g/ha applied herbicide
Procedure, shortened: (§2)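 Submerged Wagner pots (alluvial soil, 4 cm water) sown with weed seeds and planted with 2.5-leaf rice seedlings; emulsifiable concentrate diluted in water applied to water surface on sowing day. Held in greenhouse at 25-30 °C; injury scored 0-5 by herbicidal rate after three weeks.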

false cleavers [2] = experiment: Test Example 5: herbicidal effect by foliage application, plastic box (Table 20, symbol Q); format: in vivo, false cleavers (Galium spurium); settings: foliage application; for Q: false cleavers, herbicidal effect grade: three weeks after application
Procedure, shortened: (§3)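 Plants were sown into sterilized diluvial soil under about 1.5 cm cover and kept in a greenhouse at 25° C. to 30° C. Fourteen days on, foliage received an even spray of the diluted emulsion. Herbicidal or crop effect was judged three weeks afterwards.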

southern crabgrass = experiment: Test Example 5: herbicidal effect by foliage application, plastic box (Table 20, symbol F); format: in vivo, southern crabgrass (Digitaria ciliaris); settings: foliage application; for F: southern crabgrass, herbicidal effect grade: three weeks after application
Procedure, shortened: as §3

barnyard grass = experiment: Test Example 5: herbicidal effect by foliage application, plastic box (Table 20, symbol H); format: in vivo, barnyard grass (Echinochloa crus-galli); settings: foliage application; for H: barnyard grass, herbicidal effect grade: three weeks after application
Procedure, shortened: as §3

late watergrass = experiment: Test Example 1: herbicidal activity, application before weed generation under submerged conditions (Table 16, symbol A); format: in vivo, late watergrass (Echinochloa oryzicola); settings: for Herbicidal effect on A: late watergrass (grade 0-5): 320 g/ha applied herbicide
Procedure, shortened: as §2

lambsquarters = experiment: Test Example 5: herbicidal effect by foliage application, plastic box (Table 20, symbol O); format: in vivo, lambsquarters (Chenopodium album); settings: foliage application; for O: lambsquarters, herbicidal effect grade: three weeks after application
Procedure, shortened: as §3

false cleavers [3] = experiment: Test Example 4: herbicidal effect by soil treatment (Table 19, symbol Q); format: in vivo, false cleavers (Galium spurium)
Procedure, shortened: as §1

windgrass = experiment: Test Example 4: herbicidal effect by soil treatment (Table 19, symbol L); format: in vivo, windgrass (Apera spica-venti); settings: for herbicidal effect rating, L: windgrass: 320 g/ha
Procedure, shortened: as §1

oval-leafed pondweed [4] = experiment: Test Example 2: herbicidal activity, application during weed generation under submerged conditions (Table 17, symbol C); format: in vivo, oval-leafed pondweed (Monochoria vaginalis); settings: application during weed generation, submerged conditions
Procedure, shortened: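 Mixed weed seedlings in alluvial soil under a 4 cm water layer, greenhouse-grown at 25–30° C. Compound given as a diluted emulsion into the floodwater at the 1–2 leaf stage; response graded after three weeks.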

Japanese bulrush = experiment: Test Example 1: herbicidal activity, application before weed generation under submerged conditions (Table 16, symbol B); format: in vivo, Japanese bulrush (Schoenoplectus juncoides); settings: for Herbicidal effect on B: Japanese bulrush (grade 0-5): 320 g/ha applied herbicide
Procedure, shortened: as §2

transplanted rice = experiment: Test Example 1: effect on crop, application before weed generation under submerged conditions (Table 16, symbol a); format: in vivo; settings: 320 g/ha applied herbicide
Procedure, shortened: as §2

beet = experiment: Test Example 4: effect on crop by soil treatment (Table 19, symbol f); format: in vivo; settings: 320 g/ha
Procedure, shortened: as §1

rapeseed = experiment: Test Example 5: effect on crop by foliage application, plastic box (Table 20, symbol g); format: in vivo; settings: 320 g/ha
Procedure, shortened: as §3

[5] = amount of applied herbicide 274 g/ha
[6] = amount of applied herbicide 80 g/ha
[7] = 320 g/ha, 3 weeks after application
[8] = 320 g/ha, evaluated three weeks after application

Compound: COc1ccccc1-c1sc2cc(C)ccc2c1-c1c(O)c(C)nn(C)c1=O [3-049]
- R: persian speedwell, herbicidal effect grade (persian speedwell; [5]): 4 (Herbicidal rate of 70% or more and less than 90%)
- J: blackgrass, herbicidal effect grade (blackgrass; [5]): 3 (Herbicidal rate of 40% or more and less than 70%)
- herbicidal effect on Chinese sprangletop (D) (Chinese sprangletop; 274 g/ha): 5 (Herbicidal rate of 90% or more (almost completely withered))
- Herbicidal effect, C: oval-leafed pondweed (oval-leafed pondweed [1]; [5]): 3 (Herbicidal rate of 40% or more and less than 70%)
- Q: false cleavers, herbicidal effect grade (false cleavers [2]; 274 g/ha): 5 (Herbicidal rate of 90% or more (almost completely withered))
- F: southern crabgrass, herbicidal effect grade (southern crabgrass; 274 g/ha): 5 (Herbicidal rate of 90% or more (almost completely withered))
- H: barnyard grass, herbicidal effect grade (barnyard grass; 274 g/ha): 4 (Herbicidal rate of 70% or more and less than 90%)
- Herbicidal effect, A: late watergrass (late watergrass; [5]): 5 (Herbicidal rate of 90% or more (almost completely withered))
- O: lambsquarters, herbicidal effect grade (lambsquarters; 274 g/ha): 4 (Herbicidal rate of 70% or more and less than 90%)
- Q: false cleavers, herbicidal effect grade (false cleavers [3]; [5]): 3 (Herbicidal rate of 40% or more and less than 70%)
- L: windgrass, herbicidal effect grade (windgrass; [5]): 5 (Herbicidal rate of 90% or more (almost completely withered))
- herbicidal effect rating, C: oval-leafed pondweed (oval-leafed pondweed [4]; AAH 274 g/ha): 2 (Herbicidal rate of 20% or more and less than 40%)
- Herbicidal effect, B: Japanese bulrush (Japanese bulrush; [5]): 3 (Herbicidal rate of 40% or more and less than 70%)

Compound: CCOc1ccccc1-c1sc2cc(OC)ccc2c1-c1c(O)c(C)nn(C)c1=O [3-070]
- R: persian speedwell, herbicidal effect grade (persian speedwell; [6]): 5 (Herbicidal rate of 90% or more (almost completely withered))
- J: blackgrass, herbicidal effect grade (blackgrass; [6]): 0 (Herbicidal rate of 5% or less (almost no effect))
- herbicidal effect on Chinese sprangletop (D) (Chinese sprangletop; 80 g/ha): 5 (Herbicidal rate of 90% or more (almost completely withered))
- Herbicidal effect, C: oval-leafed pondweed (oval-leafed pondweed [1]; [6]): 4 (Herbicidal rate of 70% or more and less than 90%)
- Q: false cleavers, herbicidal effect grade (false cleavers [2]; 80 g/ha): 5 (Herbicidal rate of 90% or more (almost completely withered))
- F: southern crabgrass, herbicidal effect grade (southern crabgrass; 80 g/ha): 5 (Herbicidal rate of 90% or more (almost completely withered))
- H: barnyard grass, herbicidal effect grade (barnyard grass; 80 g/ha): 5 (Herbicidal rate of 90% or more (almost completely withered))
- Herbicidal effect, A: late watergrass (late watergrass; [6]): 5 (Herbicidal rate of 90% or more (almost completely withered))
- O: lambsquarters, herbicidal effect grade (lambsquarters; 80 g/ha): 5 (Herbicidal rate of 90% or more (almost completely withered))
- Q: false cleavers, herbicidal effect grade (false cleavers [3]; [6]): 1 (Herbicidal rate of 5% or more and less than 20%)
- L: windgrass, herbicidal effect grade (windgrass; [6]): 0 (Herbicidal rate of 5% or less (almost no effect))
- herbicidal effect rating, C: oval-leafed pondweed (oval-leafed pondweed [4]; AAH 80 g/ha): 4 (Herbicidal rate of 70% or more and less than 90%)
- Herbicidal effect, B: Japanese bulrush (Japanese bulrush; [6]): 5 (Herbicidal rate of 90% or more (almost completely withered))

Compound: Cc1nn(C)c(=O)c(-c2c(-c3ccc(Cl)cc3)sc3ccc(F)cc23)c1O [Compound No. 2-010, 4-(2-(4-chlorophenyl)-5-fluorobenzo[b]thiophen-3-yl)-5-hydroxy-2,6-dimethylpyridazin-3(2H)-one]
- herbicidal effect rating, R: persian speedwell (persian speedwell): 5 (Herbicidal rate of 90% or more (almost completely withered))
- herbicidal effect rating, J: blackgrass (blackgrass): 0 (Herbicidal rate of 5% or less (almost no effect))
- herbicidal effect on D (Chinese sprangletop), rating 0-5 (Chinese sprangletop): 4 (Herbicidal rate of 70% or more and less than 90%)
- Herbicidal effect on C: oval-leafed pondweed (grade 0-5) (oval-leafed pondweed [1]): 1 (Herbicidal rate of 5% or more and less than 20%)
- melting point: 258 to 259 °C
- Effect on crop a: transplanted rice (grade 0-5) (transplanted rice): 0 (Herbicidal rate of 5% or less (almost no effect))
- effect on southern crabgrass (F) (southern crabgrass; [7]): 5 (Herbicidal rate of 90% or more (almost completely withered))
- effect on barnyard grass (H) (barnyard grass; [7]): 5 (Herbicidal rate of 90% or more (almost completely withered))
- Herbicidal effect on A: late watergrass (grade 0-5) (late watergrass): 3 (Herbicidal rate of 40% or more and less than 70%)
- effect rating on crop, f: beet (beet): 3 (Herbicidal rate of 40% or more and less than 70%)
- effect on lambsquarters (O) (lambsquarters; [7]): 5 (Herbicidal rate of 90% or more (almost completely withered))
- effect on rapeseed (g) (rapeseed; 3 weeks after application): 5 (Herbicidal rate of 90% or more (almost completely withered))
- herbicidal effect rating, L: windgrass (windgrass): 0 (Herbicidal rate of 5% or less (almost no effect))
- Herbicidal effect on B: Japanese bulrush (grade 0-5) (Japanese bulrush): 3 (Herbicidal rate of 40% or more and less than 70%)

Compound: COc1cc(F)ccc1-c1sc2ccc(Cl)cc2c1-c1c(O)c(C)nn(C)c1=O [Compound No. 2-095, 4-(5-chloro-2-(4-fluoro-2-methoxyphenyl)benzo[b]thiophen-3-yl)-5-hydroxy-2,6-dimethylpyridazin-3(2H)-one]
- herbicidal effect rating, R: persian speedwell (persian speedwell): 4 (Herbicidal rate of 70% or more and less than 90%)
- herbicidal effect rating, J: blackgrass (blackgrass): 3 (Herbicidal rate of 40% or more and less than 70%)
- herbicidal effect on D (Chinese sprangletop), rating 0-5 (Chinese sprangletop): 4 (Herbicidal rate of 70% or more and less than 90%)
- Herbicidal effect on C: oval-leafed pondweed (grade 0-5) (oval-leafed pondweed [1]): 0 (Herbicidal rate of 5% or less (almost no effect))
- melting point: 221 to 223 °C
- herbicidal effect on Q: false cleavers (false cleavers [2]; [8]): 5 (Herbicidal rate of 90% or more (almost completely withered))
- Effect on crop a: transplanted rice (grade 0-5) (transplanted rice): 0 (Herbicidal rate of 5% or less (almost no effect))
- herbicidal effect on F: southern crabgrass (southern crabgrass; [8]): 4 (Herbicidal rate of 70% or more and less than 90%)
- herbicidal effect on H: barnyard grass (barnyard grass; [8]): 4 (Herbicidal rate of 70% or more and less than 90%)
- Herbicidal effect on A: late watergrass (grade 0-5) (late watergrass): 2 (Herbicidal rate of 20% or more and less than 40%)
- effect rating on crop, f: beet (beet): 4 (Herbicidal rate of 70% or more and less than 90%)
- herbicidal effect on O: lambsquarters (lambsquarters; [8]): 5 (Herbicidal rate of 90% or more (almost completely withered))
- effect on crop, g: rapeseed (rapeseed; evaluated three weeks after application): 5 (Herbicidal rate of 90% or more (almost completely withered))
- herbicidal effect rating, Q: false cleavers (false cleavers [3]; 320 g/ha): 4 (Herbicidal rate of 70% or more and less than 90%)
- herbicidal effect rating, L: windgrass (windgrass): 3 (Herbicidal rate of 40% or more and less than 70%)
- Herbicidal effect on B: Japanese bulrush (grade 0-5) (Japanese bulrush): 0 (Herbicidal rate of 5% or less (almost no effect))
